Experimental data as given in patent publication US8962627B2, “Oxime derivatives and their use as allosteric modulators of metabotropic glutamate receptors” (Prestwick Chemical, Inc., priority 2009, dated 2015).
Counter-ions that a name gives are not always drawn.

Molecular target: T1, human mGluR4 transiently over-expressed in HEK-293 cells (Homo sapiens, UniProt Q14833)
T1 construct: expressed in transfected cells; host or cells: HEK-293 cells, transient co-transfection by electroporation
Assay: Human mGluR4 positive allosteric modulator evaluation using Ca++ functional assay
Assay type: cell-based
Settings: HEK-293 cells co-transfected with hmGluR4 and chimeric G protein; EC10 glutamate; intracellular calcium (Fluo4AM); read-out: mean EC50 of agonist/positive allosteric modulator activity on mGluR4
Experimental: Human mGluR4 Positive Allosteric Modulator Evaluation Using Ca^++ Functional Assay
Compounds of the present invention were tested successively for their agonist and positive allosteric modulator activities on human mGluR4 transiently over-expressed in HEK-293 cells. They exert agonist activity if, by themselves in absence of the endogenous glutamate, they are able to activate mGluR4; and they exert positive allosteric modulator activity if they increase the action of the endogenous glutamate.
Cell Culture and Transfection
HEK-293 cells were maintained in Modified Eagle's Medium supplemented with 10% Foetal Calf Serum, 1% Penicillin/Streptomycin and 1% non essential amino acids at 37° C./5% CO2.
Cells were co-transfected by electroporation with two DNA plasmids encoding hmGluR4 and a chimeric G protein allowing redirection of the activation signal to intracellular calcium pathway. Cells were plated after transfection onto polyornithine coated, clear bottom, black-walled, 96-well plates and cultured for 24 h.
Calcium Assay EC50 Determination
Receptor activity was detected by changes in intracellular calcium measured using the fluorescent Ca^2+ sensitive dye, Fluo4AM (Molecular Probes).
The day of the assay, medium was aspirated and replaced during 3 hours by medium without serum supplemented with 1% Glutamax, 1% Penicillin/Streptomycin and 1% non essential amino acids. Then, cells were washed with freshly prepared buffer B (HBSS 1×(PAA), Hepes 20 mM, MgSO4-7H2O 1 mM, Na2CO3 3.3 mM, CaCl2-2H2O 1.3 mM, 0.5% BSA, Probenecid 2.5 mM) and loaded at 37° C. in 5% CO2 for 1.5 hours with buffer B containing 1 μM Fluo4AM 0.1 mg/mL Pluronic Acid, 7 μg/mL Glutamate Pyruvate Transaminase and 2 mM sodium pyruvate. Afterwards cells were washed twice with buffer B and 50 μL of this buffer were added to each well. Addition of compounds and intracellular Ca^2+ measurements (excitation 485 nm, emission 525 nm) were performed by the fluorescence microplate reader FlexStation (Molecular Devices).
Agonist and positive allosteric modulator activities of compounds were consecutively evaluated on the same cells plate. Agonist activity was first tested during 60 s with the addition of compound alone on the cells. Then, the cells were stimulated by an EC10 glutamate concentration and fluorescence recorded for additional 60 s. EC10 glutamate concentration is the concentration giving 10% of the maximal glutamate response. Agonist and/or positive allosteric modulator activity(ies) were evaluated in comparison to basal signal evoked by EC10 glutamate alone.
For EC50 determination, a dose-response test was performed using 6 to 9 concentrations of each compound of the invention. Dose-response curves were fitted using the sigmoidal dose-response (variable slope) analysis in GraphPad Prism program (Graph Pad Inc) and EC50 of agonist/positive allosteric modulator activity was calculated. Dose-response experiments were all performed in duplicate, two times independently.

T1 sequence (Q14833 33-912): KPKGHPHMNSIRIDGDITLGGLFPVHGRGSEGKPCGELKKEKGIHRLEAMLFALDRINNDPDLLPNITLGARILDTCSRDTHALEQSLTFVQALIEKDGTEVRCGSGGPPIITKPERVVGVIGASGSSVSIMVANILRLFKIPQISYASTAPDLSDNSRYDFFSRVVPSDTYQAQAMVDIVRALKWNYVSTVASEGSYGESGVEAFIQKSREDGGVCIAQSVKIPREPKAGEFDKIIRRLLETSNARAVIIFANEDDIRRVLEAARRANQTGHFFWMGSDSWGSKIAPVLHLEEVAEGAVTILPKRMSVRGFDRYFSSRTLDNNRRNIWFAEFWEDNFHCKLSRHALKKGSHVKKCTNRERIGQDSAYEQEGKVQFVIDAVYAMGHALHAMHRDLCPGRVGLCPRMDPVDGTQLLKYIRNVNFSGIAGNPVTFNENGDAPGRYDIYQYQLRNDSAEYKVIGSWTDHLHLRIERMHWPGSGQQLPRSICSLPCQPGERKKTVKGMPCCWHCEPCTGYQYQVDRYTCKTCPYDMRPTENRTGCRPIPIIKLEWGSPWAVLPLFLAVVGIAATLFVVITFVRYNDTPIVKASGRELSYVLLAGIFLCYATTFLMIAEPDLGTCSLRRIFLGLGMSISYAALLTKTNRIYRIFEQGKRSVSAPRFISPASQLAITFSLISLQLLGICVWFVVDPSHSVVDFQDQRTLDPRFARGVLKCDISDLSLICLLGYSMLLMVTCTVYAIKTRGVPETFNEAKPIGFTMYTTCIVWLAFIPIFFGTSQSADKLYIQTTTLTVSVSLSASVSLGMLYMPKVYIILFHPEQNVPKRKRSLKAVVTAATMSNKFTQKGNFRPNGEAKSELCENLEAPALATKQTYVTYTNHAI

`ON=c1cc(-c2cc3cccn3cn2)oc2ccc(OCCOc3ccncc3)cc12` [Example 147, 6-[2-(Pyridin-4-yloxy)-ethoxy]-2-pyrrolo[1,2-c]pyrimidin-3-yl-chromen-4-one oxime] and `ON=c1cc(-c2cc3cccn3cn2)oc2ccc(OCCCOc3ccc(F)cc3)cc12` [Example 161, 6-[3-(4-Fluoro-phenoxy)-propoxy]-2-pyrrolo[1,2-c]pyrimidin-3-yl-chromen-4-one oxime] cannot be ordered by EC50: less than 1000 nM for the first, less than 1000 nM for the second.

`Cl.OC[C@@H]1CCCN1CCOc1ccc2oc(-c3cc4cccn4cn3)cc(=NO)c2c1` [Example 95, 6-[2-((S)-2-hydroxymethylpyrrolidin-1-yl)-ethoxy]-2-pyrrolo[1,2-c]pyrimidin-3-yl-chromen-4-one oxime, hydrochloride] and `CC1CCCN1CCOc1ccc2oc(-c3cc4cccn4cn3)cc(=NO)c2c1` (stereo not drawn) [Example 92, 6-[2-(2-methyl-pyrrolidin-1-yl)-ethoxy]-2-pyrrolo[1,2-c]pyrimidin-3-yl-chromen-4-one oxime, hydrochloride] cannot be ordered by EC50: less than 5000 nM for the first, less than 5000 nM for the second.

`ON=c1cc(-c2cc3cccn3cn2)oc2ccc(OCCc3ccc(Cl)cc3)cc12` [Example 140, 6-[2-(4-Chloro-phenyl)-ethoxy]-2-pyrrolo[1,2-c]pyrimidin-3-yl-chromen-4-one oxime] and `ON=c1cc(-c2cc3cccn3cn2)oc2ccc(OCCc3ccc(F)cc3)cc12` [Example 109, 6-[2-(4-fluoro-phenyl)-ethoxy]-2-pyrrolo[1,2-c]pyrimidin-3-yl-chromen-4-one oxime, hydrochloride] cannot be ordered by EC50: less than 1000 nM for the first, less than 1000 nM for the second.

`ON=c1cc(-c2cc3cccn3cn2)oc2cc(OCCCN3CCOCC3)ccc12` [Example 143, 7-(3-Morpholin-4-yl-propoxy)-2-pyrrolo[1,2-c]pyrimidin-3-yl-chromen-4-one oxime hydrochloride] and `ON=c1cc(-c2cc3cccn3cn2)oc2cc(OCCN3CCOCC3)ccc12` [Example 142, 7-(2-Morpholin-4-yl-ethoxy)-2-pyrrolo[1,2-c]pyrimidin-3-yl-chromen-4-one oxime, hydrochloride] cannot be ordered by EC50: less than 1000 nM for the first, less than 1000 nM for the second.

`ON=c1cc(-c2cc3ccccc3cn2)oc2cc(CCc3ccccc3)ccc12` (mixture of isomers) [Example 22, 2-isoquinolin-3-yl-7-phenethyl-chromen-4-one oxime] and `ON=c1cc(-c2cc3ccccc3cn2)oc2cc(C#Cc3ccccc3)ccc12` (mixture of isomers) [Example 20, 2-isoquinolin-3-yl-7-phenylethynyl-chromen-4-one oxime] cannot be ordered by EC50: less than 5000 nM for the first, less than 1000 nM for the second.

`ON=c1cc(-c2cc3ccccc3cn2)oc2ccc(C3CC3)cc12` (mixture of isomers) [Example 34, 6-cyclopropyl-2-isoquinolin-3-yl-chromen-4-one oxime] and `C#Cc1ccc2c(=NO)cc(-c3cc4ccccc4cn3)oc2c1` (mixture of isomers) [Example 23, 7-ethynyl-2-isoquinolin-3-yl-chromen-4-one oxime] cannot be ordered by EC50: less than 5000 nM for the first, less than 1000 nM for the second.

`ON=c1cc(-c2cc3cccn3cn2)oc2ccc(OCCN3CCC(C(F)(F)F)CC3)cc12` [Example 113, 2-pyrrolo[1,2-c]pyrimidin-3-yl-6-[2-(4-trifluoromethyl-piperidin-1-yl)-ethoxy]chromen-4-one oxime, hydrochloride] and `ON=c1cc(-c2cc3cccn3cn2)oc2ccc(OCCN3CCC(F)(F)CC3)cc12` [Example 103, hydrochloride] cannot be ordered by EC50: less than 1000 nM for the first, less than 1000 nM for the second.

`ON=c1cc(-c2cc3cccn3cn2)oc2ccc(CCCN3CCOCC3)cc12` [Example 106, 6-(3-morpholin-4-yl-propyl)-2-pyrrolo[1,2-c]pyrimidin-3-yl-chromen-4-one oxime, hydrochloride] and `ON=c1cc(-c2cc3cccn3cn2)oc2cccc(OCCCN3CCOCC3)c12` [Example 157, 5-(3-Morpholin-4-yl-propoxy)-2-pyrrolo[1,2-c]pyrimidin-3-yl-chromen-4-one oxime, hydrochloride] cannot be ordered by EC50: less than 1000 nM for the first, less than 5000 nM for the second.

`ON=c1cc(-c2cc3ccn(O)c3cn2)oc2ccccc12` [Example 76, 2-(1-Hydroxy-7H-pyrrolo[2,3-c]pyridin-5-yl)-chromen-4-one oxime] and `COn1ccc2cc(-c3cc(=NO)c4ccccc4o3)ncc21` [Example 78, 2-(1-Methoxy-1H-pyrrolo[2,3-c]pyridin-5-yl)-chromen-4-one oxime] cannot be ordered by EC50: less than 5000 nM for the first, less than 5000 nM for the second.

`CNc1cccc(C#Cc2ccc3c(=NO)cc(-c4cc5ccccc5cn4)oc3c2)c1` (mixture of isomers) [Example 51, 2-Isoquinolin-3-yl-7-{3-methylaminophenylethynyl}-chromen-4-one oxime] and `COc1ccc(C#Cc2ccc3c(=NO)cc(-c4cc5ccccc5cn4)oc3c2)cc1` (mixture of isomers) [Example 31, 2-isoquinolin-3-yl-7-(4-methoxyphenyl)ethynyl-chromen-4-one oxime] cannot be ordered by EC50: less than 1000 nM for the first, less than 5000 nM for the second.

`O=C(COc1ccc2oc(-c3cc4cccn4cn3)cc(=NO)c2c1)Nc1ccc(F)cc1` [Example 150, N-(4-Fluoro-phenyl)-2-{4-hydroxyimino-2-pyrrolo[1,2-c]pyrimidin-3-yl-4H-chromen-6-yloxy}-acetamide] and `ON=c1cc(-c2cc3cccn3cn2)oc2ccc(OCCCOc3cccc(F)c3)cc12` [Example 163, 6-[3-(3-Fluoro-phenoxy)-propoxy]-2-pyrrolo[1,2-c]pyrimidin-3-yl-chromen-4-one oxime] cannot be ordered by EC50: less than 1000 nM for the first, less than 1000 nM for the second.

`ON=c1cc(-c2cc3nccn3cn2)oc2ccccc12` (mixture of isomers) [Example 73, 2-Imidazo[1,2-c]pyrimidin-7-yl-chromen-4-one oxime] and `ON=c1cc(-c2cc3cnccc3cn2)oc2ccccc12` [Example 61, 2-[2,6]Naphthyridin-3-yl-chromen-4-one oxime] cannot be ordered by EC50: less than 1000 nM for the first, less than 1000 nM for the second.

`ON=c1cc(-c2cc3cccn3cn2)oc2ccc(OCCCOc3ccc(F)c(F)c3)cc12` [Example 164, 6-[3-(3,4-Difluoro-phenoxy)-propoxy]-2-pyrrolo[1,2-c]pyrimidin-3-yl-chromen-4-one oxime] and `ON=c1cc(-c2cc3cccn3cn2)oc2ccc(OCCn3ccnc3)cc12` [Example 105, 6-(2-imidazol-1-O-ethoxy)-2-pyrrolo[1,2-c]pyrimidin-3-yl-chromen-4-one oxime] cannot be ordered by EC50: less than 1000 nM for the first, less than 1000 nM for the second.

`ON=c1cc(-c2cc3cccn3cn2)oc2ccc(O)cc12` [Example 81, 6-Hydroxy-2-pyrrolo[1,2-c]pyrimidin-3-yl-chromen-4-one oxime] and `ON=c1cc(-c2cc3cccn3cn2)oc2ccc(Br)cc12` (mixture of isomers) [Example 66, 6-bromo-2-Pyrrolo[1,2-c]pyrimidin-3-yl-chromen-4-one oxime] cannot be ordered by EC50: less than 1000 nM for the first, less than 5000 nM for the second.

`ON=c1cc(-c2cc3sccc3cn2)oc2ccc(OCCc3ccc(F)cc3)cc12` [Example 130, 6-[2-(4-Fluoro-phenyl)-ethoxy]-2-thieno[3,2-c]pyridin-6-yl-chromen-4-one oxime] and `ON=c1cc(-c2cc3cccn3cn2)oc2ccc(OCCN3C[C@@H]4C[C@H]3CO4)cc12` [Example 111, 6-[(1S,4S)-2-(2-oxa-5-aza-bicyclo[2.2.1]hept-5-yl)-ethoxy]-2-pyrrolo[1,2-c]pyrimidin-3-yl-chromen-4-one oxime, hydrochloride] cannot be ordered by EC50: less than 1000 nM for the first, less than 1000 nM for the second.

`CCN1CCN(CCOc2ccc3oc(-c4cc5cccn5cn4)cc(=NO)c3c2)CC1.Cl.Cl` [Example 121, 6-[2-(4-ethyl-piperazin-1-yl-ethoxy]-2-pyrrolo[1,2-c]pyrimidin-3-yl-chromen-4-one oxime, dihydrochloride] and `C[C@@H]1CN(CCOc2ccc3oc(-c4cc5cccn5cn4)cc(=NO)c3c2)C[C@H](C)O1` [Example 112, 6-[2-(cis-2,6-dimethyl-morpholin-4-yl)-ethoxy]-2-pyrrolo[1,2-c]pyrimidin-3-yl-chromen-4-one oxime, hydrochloride] cannot be ordered by EC50: less than 5000 nM for the first, less than 1000 nM for the second.

`Cc1c(-c2cc3ccccc3cn2)oc2ccccc2c1=NO` [Example 71, 2-Isoquinolin-3-yl-3-methyl-chromen-4-one oxime] showed an EC50 of less than 5000 nM.

Tested on: not given
Assay: not given
Settings: not given

First: ON=c1cc(-c2cc3cccn3cn2)oc2ccc(OCCOc3ccncc3)cc12 [Example 147, 6-[2-(Pyridin-4-yloxy)-ethoxy]-2-pyrrolo[1,2-c]pyrimidin-3-yl-chromen-4-one oxime]
Second: ON=c1cc(-c2cc3cccn3cn2)oc2ccc(OCCc3ccc(Cl)cc3)cc12 [Example 140, 6-[2-(4-Chloro-phenyl)-ethoxy]-2-pyrrolo[1,2-c]pyrimidin-3-yl-chromen-4-one oxime]
The melting point of the first is lower: 198 to 200 °C for the first, 247 to 249 °C for the second.

With `Cl.OC[C@@H]1CCCN1CCOc1ccc2oc(-c3cc4cccn4cn3)cc(=NO)c2c1` [Example 95, 6-[2-((S)-2-hydroxymethylpyrrolidin-1-yl)-ethoxy]-2-pyrrolo[1,2-c]pyrimidin-3-yl-chromen-4-one oxime, hydrochloride] the melting point was > 220 °C (dec.).
